# From PubChem BioAssay AID1259246 (Broad Institute, 2017)
# pIC50: −log10 of the molar value. Values joined by “and” are separate entries in the source; they are usually repeats but may differ in a detail not shown here. Identical values can stand only once. Results filed as inconclusive are left out. Active and inactive are the calls of the source.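 The calls were made as follows: active = valid dose-response fit whose half-maximal growth-inhibiting concentration is at or below a set limit above the top tested dose; inconclusive = flat fit with effect between 30 and 70%, or poor fit; inactive = half-maximal concentration above a set limit.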
# Tested on: not listed separately
# Assay: antibacterial activity against Clostridioides difficile – 10-point retest, dose response (AID 1259246)
# Details: Clostridioides difficile clinical isolate growth, OD600, 24 h; at 60 µM (top of the series)
row,SMILES,"activity change, negative = inhibition"
1,CC(C)CC#Cc1ccc2c(c1)O[C@@H](CN(C)Cc1ccc(C(=O)O)cc1)[C@H](C)CN([C@@H](C)CO)S2(=O)=O,2.34% (inactive)
2,C[C@@H]1CN([C@@H](C)CO)S(=O)(=O)c2ccc(/C=C/c3ccccc3)cc2O[C@H]1CN(C)Cc1ccccc1,2.6% (inactive)

# Same assay, conditions: Clostridioides difficile clinical isolate growth, OD600, 24 h; at 120 µM (top of the series)
row,SMILES,"activity change, negative = inhibition"
1,CO[C@@H]1CN(C)C(=O)c2cc(NC(=O)c3ccc(-c4ccccc4)cc3)ccc2OC[C@H](C)NC[C@H]1C,9.68% (inactive)
2,CO[C@@H]1CN(C)C(=O)c2cc(NC(=O)c3nc4ccccc4s3)ccc2OC[C@@H](C)N(Cc2ccncc2)C[C@@H]1C,14.6% (inactive)
3,C[C@@H]1CN([C@@H](C)CO)S(=O)(=O)c2ccc(/C=C/c3ccccc3)cc2O[C@H]1CN(C)C(=O)Nc1ccc(F)cc1,32.6% (inactive)
4,CCCC#Cc1ccc2c(c1)O[C@H](CN(C)Cc1ccc3c(c1)OCO3)[C@H](C)CN([C@@H](C)CO)S2(=O)=O,25.5% (inactive)
5,C[C@@H]1CN([C@H](C)CO)C(=O)Cc2cc(NC(=O)C3CC3)ccc2O[C@H]1CN(C)Cc1ccc(Oc2ccccc2)cc1,20.2% (inactive)
6,COc1ccc(C(=O)Nc2ccc3c(c2)C(=O)N(C)C[C@H](OC)[C@H](C)CN[C@@H](C)CO3)cc1,8.1% (inactive)
7,C[C@H](CO)N1C[C@H](C)[C@H](CN(C)C(=O)NC2CCCCC2)Oc2c(NC(=O)Nc3ccc(C(F)(F)F)cc3)cccc2C1=O,32.2% (inactive)
8,CNC[C@H]1Oc2ccc(NC(=O)C3CC3)cc2CC(=O)N([C@H](C)CO)C[C@H]1C,-1.55% (inactive)
9,COC(=O)C[C@H]1C[C@@H]2c3cc(NC(=O)C4CCC4)ccc3O[C@@H]2[C@@H](CO)O1,-6.56% (inactive)
10,CO[C@@H]1CN(C)C(=O)c2ccc(NC(=O)C3CCC3)cc2OC[C@@H](C)N(Cc2ccncc2)C[C@H]1C,-0.707% (inactive)
11,C[C@@H]1CN([C@H](C)CO)C(=O)c2cc(NC(=O)Nc3cccc4ccccc34)ccc2O[C@@H](C)CCCCO[C@H]1CN(C)S(=O)(=O)c1ccc(F)cc1,38% (inactive)
12,CO[C@H]1CN(C)C(=O)c2cc(NC(=O)c3nc4ccccc4s3)ccc2OC[C@@H](C)N(Cc2ccncc2)C[C@@H]1C,5.15% (inactive)
13,CNC[C@@H]1Oc2ccc(NC(=O)CCCN(C)C)cc2CC(=O)N([C@@H](C)CO)C[C@H]1C,-5.36% (inactive)
14,C/C=C/c1ccc2c(c1)O[C@H](CN(C)Cc1ccc(F)cc1)[C@H](C)CN([C@H](C)CO)S2(=O)=O,11.8% (inactive)
15,C[C@H](CO)N1C[C@H](C)[C@H](CN(C)Cc2ccc(Oc3ccccc3)cc2)Oc2ccc(NC(=O)C3CC3)cc2CC1=O,12.9% (inactive)

# Same assay, conditions: Clostridioides difficile clinical isolate growth, OD600, 24 h; at 135 µM (top of the series)
row,SMILES,"activity change, negative = inhibition"
1,C[C@@H]1CN([C@H](C)CO)C(=O)Cc2cc(NC(=O)c3ccncc3)ccc2O[C@@H]1CN(C)Cc1ccc(-c2ccccc2)cc1,20.6% (inactive)
2,C[C@@H]1CN([C@H](C)CO)C(=O)c2cc(NC(=O)Nc3cccc4ccccc34)ccc2O[C@@H](C)CCCCO[C@H]1CN(C)S(=O)(=O)c1cn(C)cn1,33.1% (inactive)
3,O=C(N[C@H]1CC[C@H](CCNS(=O)(=O)Cc2ccccc2)O[C@H]1CO)c1ccc2c(c1)OCO2,-7.24% (inactive)
4,C[C@@H]1CN([C@H](C)CO)C(=O)Cc2cc(NC(=O)CCC(F)(F)F)ccc2O[C@H]1CN(C)Cc1ccc(Oc2ccccc2)cc1,25.5% (inactive)
5,C[C@H]1CN([C@@H](C)CO)C(=O)Cc2cc(NC(=O)CCCN(C)C)ccc2O[C@@H]1CN(C)Cc1ccc(-c2ccccc2)cc1,-3.4% (inactive)

# Tested on: Clostridioides difficile clinical isolate growth, OD600, 24 h
# Assay: as above
# Details: not given
SMILES,pIC50,IC50
C[C@H]1CN([C@@H](C)CO)S(=O)(=O)c2ccc(C#Cc3ccc(F)cc3)cc2O[C@@H]1CN(C)C,4.16,–
CO[C@H]1CN(C)C(=O)c2cc(NC(=O)Nc3ccc(Cl)c(Cl)c3)ccc2OC[C@H](C)NC[C@H]1C,4.80 and 4.58,–
C[C@H]1CN([C@@H](C)CO)C(=O)Cc2cc(NC(=O)Nc3ccc(C(F)(F)F)cc3)ccc2O[C@H]1CN(C)Cc1ccncc1,5.13,–
C[C@@H]1CN([C@H](C)CO)C(=O)c2cc(NC(=O)Nc3cccc4ccccc34)ccc2O[C@@H](C)CCCCO[C@H]1CN(C)Cc1ccccc1,4.16,–
CO[C@H]1CN(C)C(=O)c2cc(NC(=O)Nc3cc(Cl)cc(Cl)c3)ccc2OC[C@@H](C)NC[C@H]1C,4.51 and 4.59,–
Cc1ccc(S(=O)(=O)N[C@H]2CC[C@@H](CCNC(=O)Nc3ccc(Cl)cc3)O[C@H]2CO)cc1,–,> 270 µM (inactive)
C[C@@H]1CN([C@@H](C)CO)C(=O)c2cccc(NC(=O)Nc3ccc4c(c3)OCO4)c2O[C@@H]1CN(C)Cc1ccc(-c2ccccc2)cc1,5.52,–
CO[C@@H]1CN(C)C(=O)c2cc(NC(=O)Nc3cc(Cl)cc(Cl)c3)ccc2OC[C@H](C)NC[C@H]1C,4.80 and 4.44,–
CNC[C@@H]1Oc2ccc(NC(=O)Nc3ccccc3)cc2CC(=O)N([C@@H](C)CO)C[C@H]1C,–,> 270 µM (inactive)
C[C@H]1CN([C@@H](C)CO)S(=O)(=O)c2ccc(/C=C/c3ccccc3)cc2O[C@@H]1CN(C)Cc1ccc(C(=O)O)cc1,4.20,–
CNC[C@H]1Oc2c(NC(=O)Nc3ccc(C(F)(F)F)cc3)cccc2C(=O)N([C@@H](C)CO)C[C@H]1C,4.44,–
COc1ccc(NC(=O)Nc2cccc3c2O[C@H](CN(C)Cc2ccc(-c4ccccc4)cc2)[C@H](C)CN([C@@H](C)CO)C3=O)cc1,3.99,–
C[C@H](CO)N1C[C@H](C)[C@H](CN(C)C(=O)NC2CCCCC2)Oc2ncc(C#Cc3ccc(F)cc3)cc2C1=O,4.42,–
COc1ccc(C#Cc2cnc3c(c2)C(=O)N([C@@H](C)CO)C[C@@H](C)[C@H](CN(C)CC2CCCC2)O3)cc1,3.73,–
C[C@@H]1CN([C@@H](C)CO)C(=O)Cc2cc(NC(=O)CCCN(C)C)ccc2O[C@H]1CN(C)Cc1ccc(Oc2ccccc2)cc1,4.15,–
CN(C)CC(=O)N1[C@H](C#N)[C@H](c2ccc(C#CC3CCCCC3)cc2)[C@@H]1CO,4.19,–
C[C@H](CO)N1C[C@H](C)[C@@H](CN(C)Cc2ccc(Oc3ccccc3)cc2)Oc2ccc(NC(=O)CCCN(C)C)cc2CC1=O,4.19,–
CO[C@@H]1CN(C)C(=O)c2cc(NC(=O)Nc3ccc(Cl)c(Cl)c3)ccc2OC[C@H](C)NC[C@H]1C,4.80 and 4.95,–
C[C@@H]1CN([C@@H](C)CO)C(=O)c2cccc(NC(=O)Nc3ccc(F)cc3)c2O[C@@H]1CN(C)Cc1ccc(-c2ccccc2)cc1,5.34 and 5.77 and 5.71,–
COc1ccc(NC(=O)Nc2cccc3c2O[C@H](CN(C)Cc2ccc(C(F)(F)F)cc2)[C@H](C)CN([C@@H](C)CO)C3=O)cc1,4.59,–
C[C@@H]1CN([C@@H](C)CO)S(=O)(=O)c2ccc(/C=C/c3ccccc3)cc2O[C@@H]1CN(C)Cc1ccc(C(=O)O)cc1,–,> 240 µM (inactive)
C[C@@H]1CN([C@H](C)CO)S(=O)(=O)c2ccc(C#CCC3CCCC3)cc2O[C@H]1CN(C)Cc1ccc(C(=O)O)cc1,4.12,–

SMILES,pIC50,IC50
CO[C@H]1CN(C)C(=O)c2ccc(NC(=O)c3nc4ccccc4s3)cc2OC[C@@H](C)N(Cc2ccncc2)C[C@@H]1C,–,> 240 µM (inactive)
C[C@H](CO)N1C[C@H](C)[C@@H](CN(C)Cc2ccc(-c3ccccc3)cc2)Oc2ccc(NC(=O)CCCN(C)C)cc2CC1=O,4.16,–
C[C@H](O)C#Cc1ccc2c(c1)O[C@H](CN(C)C(=O)CN(C)C)[C@H](C)CN([C@H](C)CO)S2(=O)=O,–,> 240 µM (inactive)
C[C@@H]1CN([C@@H](C)CO)S(=O)(=O)c2ccc(/C=C/c3ccccc3)cc2O[C@H]1CN(C)Cc1ccc(C(=O)O)cc1,5.48,–
CO[C@H](CN(C)C(=O)C1CCOCC1)[C@H](C)CN(C(=O)Nc1ccc(C(F)(F)F)cc1)[C@H](C)CO,4.58,–
C[C@H](CO)N1C[C@H](C)[C@H](CN(C)C(=O)Nc2ccccc2)Oc2c(NC(=O)Nc3ccc(C(F)(F)F)cc3)cccc2C1=O,4.70,–
CO[C@@H](CN(C)C(=O)C1CC1)[C@H](C)CN(C(=O)Nc1ccc(C(F)(F)F)cc1)[C@@H](C)CO,5.18,–
CO[C@H]1CN(C)C(=O)c2cc(NC(=O)Nc3cc(Cl)cc(Cl)c3)ccc2OC[C@H](C)NC[C@@H]1C,4.47 and 4.26,–
CO[C@H](CN(C)C(=O)C1CCOCC1)[C@@H](C)CN(C(=O)Nc1ccc(C(F)(F)F)cc1)[C@@H](C)CO,5.69,–
N#C[C@H]1[C@@H](c2ccc(C#Cc3ccccc3F)cc2)[C@@H](CO)N1C(=O)C1CCCCC1,3.80,–
COc1ccc(S(=O)(=O)Nc2cccc3c2O[C@H](CN(C)Cc2ccc(Oc4ccccc4)cc2)[C@H](C)CN([C@@H](C)CO)C3=O)cc1,5.03,–
C[C@@H]1CN([C@@H](C)CO)C(=O)c2cccc(NC(=O)Nc3ccc(C(F)(F)F)cc3)c2O[C@@H]1CN(C)Cc1ccccc1,5.57,–
C[C@@H]1CN([C@@H](C)CO)S(=O)(=O)c2ccc(C#CCC3CCCC3)cc2O[C@H]1CN(C)Cc1ccc(C(=O)O)cc1,4.49,–
C[C@@H]1CN([C@@H](C)CO)C(=O)c2cccc(NC(=O)Nc3ccccc3)c2O[C@@H]1CN(C)Cc1ccc(Oc2ccccc2)cc1,5.92 and 6.40 and > 6.63,–
CO[C@H]1CN(C)C(=O)c2cc(NC(=O)Nc3ccc(Cl)c(Cl)c3)ccc2OC[C@@H](C)NC[C@@H]1C,4.84 and 4.75,–
C[C@@H]1CN([C@@H](C)CO)C(=O)c2cccc(NC(=O)Nc3ccc(C(F)(F)F)cc3)c2O[C@@H]1CN(C)Cc1ccc(Oc2ccccc2)cc1,6.35 and 6.14,–
CO[C@H]1CN(C)C(=O)c2cc(NC(=O)Nc3cc(Cl)cc(Cl)c3)ccc2OC[C@H](C)NC[C@H]1C,4.39 and 5.09,–
COc1ccc(S(=O)(=O)Nc2cccc3c2O[C@H](CN(C)Cc2ccc(-c4ccccc4)cc2)[C@H](C)CN([C@@H](C)CO)C3=O)cc1,4.27,–
C[C@@H]1CN([C@@H](C)CO)C(=O)Cc2cc(NC(=O)CCCN(C)C)ccc2O[C@H]1CN(C)Cc1ccc(-c2ccccc2)cc1,4.50,–
Cc1ccc(F)cc1S(=O)(=O)N[C@@H]1CCN(Cc2ccc(CC(C)C)cc2)C1,4.84,–
CO[C@H](CN(C)C(=O)C1CCOCC1)[C@H](C)CN(C(=O)Nc1ccc(C(F)(F)F)cc1)[C@@H](C)CO,4.67,–
Cc1ccc(-c2ccc3c(c2)O[C@@H](CN(C)Cc2ccc(C(=O)O)cc2)[C@H](C)CN([C@@H](C)CO)S3(=O)=O)cc1,3.96,–
